The results in this text go back to ChEMBL document CHEMBL5154668, “Modulating physicochemical properties of tetrahydropyridine-2-amine BACE1 inhibitors with electron-withdrawing groups: A systematic study” (Eur J Med Chem, 2022).

A short description of series [1]: Inhibition of sodium channel (unknown origin). Further details: species or system Homo sapiens.
Series [2] is described as follows: Inhibition of calcium channel (unknown origin). Further details: species or system Homo sapiens.
Another series has as its target Beta-secretase 1 (Homo sapiens, UniProt P56817). Briefly: Inhibition of BACE1 (unknown origin).
Series [3] deals with Voltage-gated inwardly rectifying potassium channel KCNH2 (Homo sapiens, UniProt Q12809). In words: Inhibition of hERG. The class given is toxicity. A general note: hERG is a cardiac potassium channel; its block is linked to QT prolongation.
Voltage-gated inwardly rectifying potassium channel KCNH2, sequence (Q12809 whole entry): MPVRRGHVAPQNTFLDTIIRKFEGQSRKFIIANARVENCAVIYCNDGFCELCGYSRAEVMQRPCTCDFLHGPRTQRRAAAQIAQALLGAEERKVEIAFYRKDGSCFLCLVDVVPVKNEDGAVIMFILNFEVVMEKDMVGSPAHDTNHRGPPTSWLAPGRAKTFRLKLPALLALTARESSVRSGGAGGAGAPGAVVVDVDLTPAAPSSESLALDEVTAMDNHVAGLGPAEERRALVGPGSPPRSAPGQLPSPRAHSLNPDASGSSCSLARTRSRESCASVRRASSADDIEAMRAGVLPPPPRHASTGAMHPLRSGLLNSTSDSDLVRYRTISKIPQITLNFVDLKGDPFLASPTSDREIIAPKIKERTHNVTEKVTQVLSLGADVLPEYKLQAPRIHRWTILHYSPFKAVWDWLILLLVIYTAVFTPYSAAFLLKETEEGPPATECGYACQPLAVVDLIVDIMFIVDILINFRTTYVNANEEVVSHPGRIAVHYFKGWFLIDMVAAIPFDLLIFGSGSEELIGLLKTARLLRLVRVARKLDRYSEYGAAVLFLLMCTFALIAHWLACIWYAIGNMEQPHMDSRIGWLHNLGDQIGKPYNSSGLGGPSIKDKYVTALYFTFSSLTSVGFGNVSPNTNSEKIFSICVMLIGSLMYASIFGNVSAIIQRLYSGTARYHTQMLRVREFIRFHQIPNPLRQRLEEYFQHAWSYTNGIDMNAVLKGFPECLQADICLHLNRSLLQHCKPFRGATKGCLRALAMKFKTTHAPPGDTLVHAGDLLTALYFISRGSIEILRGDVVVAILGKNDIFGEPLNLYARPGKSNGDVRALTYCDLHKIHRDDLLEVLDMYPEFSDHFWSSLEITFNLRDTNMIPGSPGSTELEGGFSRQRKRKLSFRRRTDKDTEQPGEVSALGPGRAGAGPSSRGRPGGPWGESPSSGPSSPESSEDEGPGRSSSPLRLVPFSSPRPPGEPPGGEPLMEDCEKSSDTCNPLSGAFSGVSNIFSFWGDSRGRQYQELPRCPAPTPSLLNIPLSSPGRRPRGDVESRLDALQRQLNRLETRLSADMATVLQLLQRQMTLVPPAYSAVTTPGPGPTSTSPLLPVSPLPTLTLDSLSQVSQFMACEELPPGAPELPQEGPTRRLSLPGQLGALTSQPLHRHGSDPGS
Series [4] in a line: Apparent permeability in MDCK-MDR1 cells. The class given is ADME, cell-based, Canis lupus familiaris. The conditions noted are these: dog.
The nature of series [5]: Efflux ratio of apparent permeability in MDCK-MDR1 cells. The class given is ADME, cell-based, Canis lupus familiaris. The conditions noted are these: dog.
Series [6] can be described thus: Dissociation constant, pKa of the compound by potentiometric titration method. The class given is physicochemical.

A value given as a limit tells only on which side of the number the result lay.

Beta-secretase 1, sequence (P56817 whole entry): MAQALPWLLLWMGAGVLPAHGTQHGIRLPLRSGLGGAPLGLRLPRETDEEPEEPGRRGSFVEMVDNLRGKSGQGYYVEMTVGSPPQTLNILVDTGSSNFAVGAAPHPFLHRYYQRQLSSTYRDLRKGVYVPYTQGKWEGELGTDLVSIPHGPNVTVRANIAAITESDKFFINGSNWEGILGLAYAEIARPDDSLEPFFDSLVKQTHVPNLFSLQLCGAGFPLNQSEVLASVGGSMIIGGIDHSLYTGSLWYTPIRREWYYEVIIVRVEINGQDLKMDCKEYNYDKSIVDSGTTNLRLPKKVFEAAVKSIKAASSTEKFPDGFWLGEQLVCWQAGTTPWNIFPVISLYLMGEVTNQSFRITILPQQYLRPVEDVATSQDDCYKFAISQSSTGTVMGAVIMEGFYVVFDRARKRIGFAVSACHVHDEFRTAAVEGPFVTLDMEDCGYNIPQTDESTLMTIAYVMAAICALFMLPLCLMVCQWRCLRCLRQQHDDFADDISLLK

As a reminder, the IC50 is the concentration needed to halve the response being measured. Regarding `C[C@@]1(S(C)(=O)=O)CC[C@@](CF)(c2cc(NC(=O)c3cnc(OCF)cn3)ccc2F)N=C1N`, the IC50 was 8.51 µM in series [1] and more than 10 µM in series [2].
In the case of `COc1cnc(-c2ccc(F)c([C@]3(C)CC[C@@](C)(C#N)C(N)=N3)c2)cn1`, the IC50 against Beta-secretase 1 amounted to 9.8 nM; in series [1], 4.9 µM; in series [2] it was 6.61 µM.
With `CC1CC[C@@](CF)(c2cc(-c3cc4c(cn3)OC(F)(F)O4)ccc2F)N=C1N` (stereo not given in full), the concentration for half-maximal inhibition (IC50) at Beta-secretase 1 worked out at 59 nM; in series [1], 0.65 µM; in series [2], 1.95 µM.
As for `COc1cnc(-c2ccc(F)c([C@]3(CF)CC[C@@](C)(C#N)C(N)=N3)c2)cn1`, the IC50 was 54 nM at Beta-secretase 1, more than 10 µM in series [1] and more than 10 µM in series [2].
`COc1cnc(C(=O)Nc2ccc(F)c([C@@]3(C)N=C(N)[C@](C)(S(C)(=O)=O)C[C@@H]3F)c2)cn1`: the IC50 in series [1] and in series [2] was more than 10 µM each time.
The term Papp denotes the rate of passage across a membrane or cell layer, normalised by area and donor concentration. For orientation: efflux ratio means the permeability from basolateral to apical divided by that in the opposite direction, in the common usage. As usually defined, the pKa is the pH at which an ionisable group is half protonated. For the compound `CN(C)C(=O)[C@]1(C)CC[C@@](CF)(c2cc(-c3ccc(F)cn3)ccc2F)N=C1N`, the IC50 against Beta-secretase 1 is 66 nM; in series [3], 8.32 µM; in series [1] it was more than 10 µM; in series [2], more than 10 µM. Also, the Papp in series [4] turned out to be 2.7 ×10⁻⁶ cm/s. Moreover, the efflux ratio in series [5] was 52. Further, the pKa in series [6] came out at 9.2.
As to `C[C@@]1(S(C)(=O)=O)CC[C@@](CF)(c2nc(-c3cnc(OCF)cn3)ccc2F)N=C1N`, at Beta-secretase 1, the IC50 came out at 38 nM. The same compound showed a pKa in series [6] of 7.6.
On to `CN(C)S(=O)(=O)[C@]1(C)CC[C@@](CF)(c2cc(-c3ccc(F)cn3)ccc2F)N=C1N`, for which the figures for the IC50 (against Beta-secretase 1; in series [1]; in series [2]) were 4 nM, 2.14 µM and more than 10 µM, respectively.
In the case of `C[C@@]1(c2cc(-c3cc4c(cn3)OC(F)(F)O4)ccc2F)CC[C@@](C)(S(=O)(=O)C(F)(F)F)C(N)=N1`, the IC50 on Beta-secretase 1 was 5.9 nM; in series [3], more than 10 µM; in series [1], 0.17 µM; in series [2], less than 0.1 µM. In addition, the pKa in series [6] was 7.4.
`COc1cnc(-c2ccc(F)c([C@]3(CF)CC[C@](C)(C#N)C(N)=N3)c2)cn1`: the IC50 against Beta-secretase 1 is 851 nM; in series [1] it was more than 10 µM; in series [2], more than 10 µM.
Regarding `COc1cnc(-c2ccc(F)c([C@]3(C)CC[C@@](C)(S(C)(=O)=O)C(N)=N3)c2)cn1`, the IC50 on Beta-secretase 1 was 4 nM; in series [1], 8.71 µM; in series [2] it was more than 10 µM.
Turning to `COc1cnc(-c2ccc(F)c([C@]3(C(F)F)CC[C@@](C)(C#N)C(N)=N3)c2)cn1`, the IC50 was 12 nM against Beta-secretase 1, more than 10 µM in series [3], more than 10 µM in series [1] and more than 10 µM in series [2]. Besides, the Papp in series [4] is 54 ×10⁻⁶ cm/s. The efflux ratio in series [5] came out at 15. This compound yielded a pKa in series [6] of 6.
`C[C@@]1(c2cc(NC(=O)c3ccc(F)cn3)ccc2F)CC[C@@](CF)(S(C)(=O)=O)C(N)=N1`: the IC50 was 15 nM against Beta-secretase 1, 6.46 µM in series [1] and more than 10 µM in series [2].
For `C[C@@]1(c2cc(-c3ccc(Cl)cn3)ccc2F)CCC2(CC2)C(N)=N1`, the IC50 on Beta-secretase 1 worked out at 31 nM. The pKa in series [6] is more than 11.
`C[C@@]1(c2cc(-c3ccc(Cl)cn3)ccc2F)C[C@@H]2C[C@@H]2C(N)=N1` yielded an IC50 on Beta-secretase 1 of 96 nM. Further, in series [6], the pKa is more than 11.
For `NC1=N[C@](CF)(c2cc(-c3cnc(OCF)cn3)ccc2F)CCC1(F)F`, the figures for the 50% inhibitory concentration (IC50) (on Beta-secretase 1; in series [1]; in series [2]) were 8.9 nM, more than 10 µM and more than 10 µM, respectively.
`C[C@@]1(c2nc(-c3ccc(F)cn3)cs2)CC[C@@](C)(S(C)(=O)=O)C(N)=N1` came in with an IC50 against Beta-secretase 1 of 25 nM. Moreover, the Papp in series [4] was determined as 37 ×10⁻⁶ cm/s. The efflux ratio in series [5] turned out to be 22. Besides, in series [6], the pKa turned out to be 7.
Consider `C[C@@]1(c2cc(-c3cnc(OCF)cn3)ccc2F)CCC(F)(F)C(N)=N1`, for which the results for the IC50 (on Beta-secretase 1; in series [1]; in series [2]) were 12 nM, more than 10 µM and more than 10 µM, respectively.
